# Experimental data as given in EP4603105A1, “PHARMACEUTICAL COMPOSITION CONTAINING CYCLIC COMPOUND HAVING SELECTIVE KRAS INHIBITORY EFFECT AGAINST HRAS AND NRAS” (CHUGAI SEIYAKU KABUSHIKI KAISHA, priority 2022, dated 2024).
# *1 amine or outer side, *2 acyl side, *3 side chain or, on linkers, in order; H or OH if unused. Where a SMILES comes first, the peptide text is derived from it. Bridges are numbered along the chain shown (N, C = ends). [ ]: non-standard residue; d: D form. The star is where a group is joined. hPhe(3,5-F2-4-CF3) = N[C@@H](CCc1cc(F)c(C(F)(F)F)c(F)c1)C(=O)O; NPrPhe(4-CF3) = CCCN[C@@H](Cc1ccc(C(F)(F)F)cc1)C(=O)O; NMeGly(cPent) = CN[C@H](C(=O)O)C1CCCC1; X7 = C[C@@](N[*:1])(C(=O)[*:2])C1CC1; Nva(3-Et) = CCC(CC)[C@H](N)C(=O)O; X3 = CCC[C@](C)(N[*:1])C(=O)[*:2]; αMeF = C[C@](N)(Cc1ccccc1)C(=O)O; NMeD = CN[C@@H](CC(=O)O)C(=O)O; NMeL = CN[C@@H](CC(C)C)C(=O)O; αMeL = CC(C)C[C@](C)(N)C(=O)O; αMeV = CC(C)[C@](C)(N)C(=O)O; αMeS = C[C@](N)(CO)C(=O)O; Morpholide = C1CN(*)CCO1; Ac5c = NC1(C(=O)O)CCCC1; Aze = O=C(O)[C@@H]1CCN1; Sar = CNCC(=O)O; Allyl = C=CC*
# Tests used:
# [1] = system: human lung cancer strain NCI-H441; assay type: cell-based
# Procedure, shortened: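 Proliferation was scored by […] measured after the reagent was added to cultures kept at 37°C in 5% carbon dioxide.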
# [2] = biological target: GDP-bound KRAS wild-type protein (Homo sapiens, UniProt P01116); assay: Binding to KRAS by surface plasmon resonance (SPR), dissociation constant KD; conditions: Single Cycle Kinetics
# Procedure, shortened: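 Biotinylated GDP-bound RAS was captured at about 100–300 RU. Running buffer: HBS pH 7.4, 10 mM MgCl2, 10 µM GDP, 1 mM DTT, 0.01% Tween 20, 4% DMSO.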
# HRAS wild-type protein = HRAS wild-type protein (Homo sapiens, UniProt P01112); assay: Binding to HRAS by surface plasmon resonance (SPR), KD and KD ratio to KRAS; conditions: ratio of KD for HRAS wild-type protein to KD for KRAS
# Procedure, shortened: (§1)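 Compound binding is evaluated by SPR single-cycle kinetics, with concentrations added intermittently from low to high for 75 s each. Target surfaces carry GDP-loaded biotinylated Avi-RAS at about 100–300 RU, regenerated after each cycle; temperature 30°C. A 1:1 binding model gives KD.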
# [3] = biological target: GDP-bound NRAS wild-type protein (Homo sapiens, UniProt P01111); assay: Binding to NRAS by surface plasmon resonance (SPR), KD and KD ratio to KRAS; conditions: ratio of KD for GDP-bound NRAS wild-type protein to KD for KRAS
# Procedure, shortened: as §1
# Sequence of GDP-bound NRAS wild-type protein (P01111 whole entry): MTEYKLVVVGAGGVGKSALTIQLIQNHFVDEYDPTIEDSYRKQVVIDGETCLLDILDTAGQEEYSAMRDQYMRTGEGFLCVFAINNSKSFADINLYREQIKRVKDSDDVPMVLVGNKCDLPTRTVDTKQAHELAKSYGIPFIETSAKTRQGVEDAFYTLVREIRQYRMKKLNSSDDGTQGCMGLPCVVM
# Sequence of GDP-bound KRAS wild-type protein (P01116 1-188 isoform P01116-2): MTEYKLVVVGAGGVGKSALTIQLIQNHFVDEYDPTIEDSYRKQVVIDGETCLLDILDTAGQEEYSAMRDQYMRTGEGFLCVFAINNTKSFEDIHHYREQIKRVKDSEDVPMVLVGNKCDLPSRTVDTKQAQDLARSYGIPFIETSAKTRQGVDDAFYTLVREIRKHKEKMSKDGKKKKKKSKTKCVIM
# Sequence of HRAS wild-type protein (P01112 whole entry): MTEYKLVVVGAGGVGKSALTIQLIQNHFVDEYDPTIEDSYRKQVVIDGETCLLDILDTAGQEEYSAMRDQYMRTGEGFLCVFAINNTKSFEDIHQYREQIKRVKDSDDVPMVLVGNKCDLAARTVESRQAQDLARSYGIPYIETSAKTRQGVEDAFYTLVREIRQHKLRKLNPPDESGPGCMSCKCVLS
SMILES,IC50 [1] [µM],Kd [2] [µM],HRAS /KRAS (HRAS wild-type protein),NRAS /KRAS [3]
"CCCN1C(=O)CN(C)C(=O)[C@@H]2CCN2C(=O)[C@H]([C@@H](C)CC)NC(=O)[C@H](CC(C)C)N(C)C(=O)C[C@@H](C(=O)N2CCOCC2)N(C)C(=O)[C@H](C2CCCC2)N(C)C(=O)[C@](C)(C2CC2)NC(=O)[C@@H]2CCCN2C(=O)[C@H](CCc2cc(F)c(C(F)(F)F)c(F)c2)NC(=O)CN(C)C(=O)[C@@H]1Cc1ccc(C(F)(F)F)cc1 [PP0772] ([NMeL]I[Aze][Sar][NPrPhe(4-CF3)][Sar][hPhe(3,5-F2-4-CF3)]P[X7][NMeGly(cPent)][NMeD]-Morpholide; lactam N-11)",0.434,0.0043,B (a compound having 3 or more and less than 10 is denoted as B),B (a compound having 3 or more and less than 10 is denoted as B)
"CCCN1C(=O)CN(C)C(=O)[C@@H]2CCN2C(=O)[C@H]([C@@H](C)CC)NC(=O)[C@H](CC(C)C)N(C)C(=O)C[C@@H](C(=O)N2CCOCC2)N(C)C(=O)[C@H](C2CCCC2)N(C)C(=O)[C@](C)(C(C)C)NC(=O)[C@@H]2CCCN2C(=O)[C@H](CCc2cc(F)c(C(F)(F)F)c(F)c2)NC(=O)CN(C)C(=O)[C@@H]1Cc1ccc(C(F)(F)F)cc1 [PP0773] ([NMeL]I[Aze][Sar][NPrPhe(4-CF3)][Sar][hPhe(3,5-F2-4-CF3)]P[αMeV][NMeGly(cPent)][NMeD]-Morpholide; lactam N-11)",0.17,0.004,B (a compound having 3 or more and less than 10 is denoted as B),B (a compound having 3 or more and less than 10 is denoted as B)
"CCCN1C(=O)CN(C)C(=O)[C@@H]2CCN2C(=O)[C@H]([C@@H](C)CC)NC(=O)[C@H](CC(C)C)N(C)C(=O)C[C@@H](C(=O)N2CCOCC2)N(C)C(=O)[C@H](C2CCCC2)N(C)C(=O)[C@](C)(CCC)NC(=O)[C@@H]2CCCN2C(=O)[C@H](CCc2cc(F)c(C(F)(F)F)c(F)c2)NC(=O)CN(C)C(=O)[C@@H]1Cc1ccc(C(F)(F)F)cc1 [PP0775] ([NMeL]I[Aze][Sar][NPrPhe(4-CF3)][Sar][hPhe(3,5-F2-4-CF3)]P[X3][NMeGly(cPent)][NMeD]-Morpholide; lactam N-11)",0.417,0.0092,B (a compound having 3 or more and less than 10 is denoted as B),B (a compound having 3 or more and less than 10 is denoted as B)
"CCCN1C(=O)CN(C)C(=O)[C@@H]2CCN2C(=O)[C@H]([C@@H](C)CC)NC(=O)[C@H](CC(C)C)N(C)C(=O)C[C@@H](C(=O)N2CCOCC2)N(C)C(=O)[C@H](C2CCCC2)N(C)C(=O)[C@](C)(CC(C)C)NC(=O)[C@@H]2CCCN2C(=O)[C@H](CCc2cc(F)c(C(F)(F)F)c(F)c2)NC(=O)CN(C)C(=O)[C@@H]1Cc1ccc(C(F)(F)F)cc1 [PP0776] ([NMeL]I[Aze][Sar][NPrPhe(4-CF3)][Sar][hPhe(3,5-F2-4-CF3)]P[αMeL][NMeGly(cPent)][NMeD]-Morpholide; lactam N-11)",0.591,0.015,B (a compound having 3 or more and less than 10 is denoted as B),B (a compound having 3 or more and less than 10 is denoted as B)
"CCCN1C(=O)CN(C)C(=O)[C@@H]2CCN2C(=O)[C@H]([C@@H](C)CC)NC(=O)[C@H](CC(C)C)N(C)C(=O)C[C@@H](C(=O)N2CCOCC2)N(C)C(=O)[C@H](C2CCCC2)N(C)C(=O)[C@](C)(Cc2ccccc2)NC(=O)[C@@H]2CCCN2C(=O)[C@H](CCc2cc(F)c(C(F)(F)F)c(F)c2)NC(=O)CN(C)C(=O)[C@@H]1Cc1ccc(C(F)(F)F)cc1 [PP0778] ([NMeL]I[Aze][Sar][NPrPhe(4-CF3)][Sar][hPhe(3,5-F2-4-CF3)]P[αMeF][NMeGly(cPent)][NMeD]-Morpholide; lactam N-11)",0.546,0.01,B (a compound having 3 or more and less than 10 is denoted as B),B (a compound having 3 or more and less than 10 is denoted as B)
"CCCN1C(=O)CN(C)C(=O)[C@@H]2CCN2C(=O)[C@H]([C@@H](C)CC)NC(=O)[C@H](CC(C)C)N(C)C(=O)C[C@@H](C(=O)N2CCOCC2)N(C)C(=O)[C@H](C2CCCC2)N(C)C(=O)[C@](C)(COC)NC(=O)[C@@H]2CCCN2C(=O)[C@H](CCc2cc(F)c(C(F)(F)F)c(F)c2)NC(=O)CN(C)C(=O)[C@@H]1Cc1ccc(C(F)(F)F)cc1 [PP0779] ([NMeL]I[Aze][Sar][NPrPhe(4-CF3)][Sar][hPhe(3,5-F2-4-CF3)]P[αMeS](Me)[NMeGly(cPent)][NMeD]-Morpholide; lactam N-11)",0.364,0.0051,B (a compound having 3 or more and less than 10 is denoted as B),B (a compound having 3 or more and less than 10 is denoted as B)
"C=CCOC[C@]1(C)NC(=O)[C@@H]2CCCN2C(=O)[C@H](CCc2cc(F)c(C(F)(F)F)c(F)c2)NC(=O)CN(C)C(=O)[C@H](Cc2ccc(C(F)(F)F)cc2)N(CCC)C(=O)CN(C)C(=O)[C@@H]2CCN2C(=O)[C@H]([C@@H](C)CC)NC(=O)[C@H](CC(C)C)N(C)C(=O)C[C@@H](C(=O)N2CCOCC2)N(C)C(=O)[C@H](C2CCCC2)N(C)C1=O [PP0780] ([NMeL]I[Aze][Sar][NPrPhe(4-CF3)][Sar][hPhe(3,5-F2-4-CF3)]P[αMeS](Allyl)[NMeGly(cPent)][NMeD]-Morpholide; lactam N-11)",0.527,0.0078,B (a compound having 3 or more and less than 10 is denoted as B),B (a compound having 3 or more and less than 10 is denoted as B)
"CCCN1C(=O)CN(C)C(=O)[C@@H]2CCN2C(=O)[C@H](C(CC)CC)NC(=O)[C@H](CC(C)C)N(C)C(=O)C[C@@H](C(=O)N2CCOCC2)N(C)C(=O)[C@H](C2CCCC2)N(C)C(=O)C2(CCCC2)NC(=O)[C@@H]2CCCN2C(=O)[C@H](CCc2cc(F)c(C(F)(F)F)c(F)c2)NC(=O)CN(C)C(=O)[C@@H]1Cc1ccc(C(F)(F)F)cc1 [PP0785] ([NMeL][Nva(3-Et)][Aze][Sar][NPrPhe(4-CF3)][Sar][hPhe(3,5-F2-4-CF3)]P[Ac5c][NMeGly(cPent)][NMeD]-Morpholide; lactam N-11)",0.324,0.003,B (a compound having 3 or more and less than 10 is denoted as B),B (a compound having 3 or more and less than 10 is denoted as B)
CCO[C@@H]1C[C@H]2C(=O)NC3(CCC3)C(=O)N(C)[C@@H](C3CCCC3)C(=O)N(C)[C@H](C(=O)N3CCOCC3)CC(=O)N(C)[C@@H](CC(C)C)C(=O)N[C@@H]([C@H](C)CC)C(=O)N(C)CC(=O)N(C)[C@H]3CCCCN(C3=O)[C@@H](Cc3ccc(C(F)(F)F)cc3)C(=O)N(C)CC(=O)N[C@@H](CCc3cc(F)c(C(F)(F)F)c(F)c3)C(=O)N2C1 [PP0806],0.0169,0.00019,B (a compound having 3 or more and less than 10 is denoted as B),B (a compound having 3 or more and less than 10 is denoted as B)
CCO[C@@H]1C[C@H]2C(=O)NC3(CCC3)C(=O)N(C)[C@@H](C3CCCC3)C(=O)N(C)[C@H](C(=O)N3CCOCC3)CC(=O)N(C)[C@@H](CC(C)C)C(=O)N[C@@H]([C@H](C)CC)C(=O)N(C)CC(=O)N(C)[C@H]3CCCCCN(C3=O)[C@@H](Cc3ccc(C(F)(F)F)cc3)C(=O)N(C)CC(=O)N[C@@H](CCc3cc(F)c(C(F)(F)F)c(F)c3)C(=O)N2C1 [PP0815],0.345,0.0039,B (a compound having 3 or more and less than 10 is denoted as B),B (a compound having 3 or more and less than 10 is denoted as B)
CCO[C@@H]1C[C@H]2C(=O)NC3(CCC3)C(=O)N(C)[C@@H](C3CCCC3)C(=O)N(C)[C@H](C(=O)N3CCOCC3)CC(=O)N(C)[C@@H](CC(C)C)C(=O)N[C@@H](C3CC(F)(F)C3)C(=O)N(C)CC(=O)N(C)[C@H]3CCCCCN(C3=O)[C@@H](Cc3ccc(C(F)(F)F)cc3)C(=O)N(C)CC(=O)N[C@@H](CCc3cc(F)c(C(F)(F)F)c(F)c3)C(=O)N2C1 [PP0816],0.0925,0.0005,B (a compound having 3 or more and less than 10 is denoted as B),A (a compound having 10 or more and less than 20 is denoted as A)
CC[C@H](C)[C@@H]1NC(=O)[C@H](CC(C)C)N(C)C(=O)C[C@@H](C(=O)N2CCOCC2)N(C)C(=O)[C@H](C2CCCC2)N(C)C(=O)C2(CCC2)NC(=O)[C@]2(C)CCCN2C(=O)[C@H](CCc2cc(F)c(C(F)(F)F)c(F)c2)NC(=O)CN(C)C(=O)[C@H](Cc2ccc(C(F)(F)F)cc2)N2CCCCC[C@@H](C2=O)N(C)C(=O)CN(C)C1=O [PP0817],0.112,0.00036,B (a compound having 3 or more and less than 10 is denoted as B),A (a compound having 10 or more and less than 20 is denoted as A)
